# Laboratory results as given in patent US20110250629A1, “ALCOHOL PRODUCTION PROCESS” (Lanza Tech New Zealand Limited, priority 2009, published 2011).
# How the values were obtained:
# [1] = test system: Clostridium autoethanogenum; conditions: fermentation broth
# [2] = test system: Clostridium autoethanogenum DSM23693; conditions: 37° C., PETC medium
# Method: The ethanol tolerance of Clostridium autoethanogenum DSM23693 was tested in serum bottles (FIG. 5). Ethanol was added in various concentrations to an active growing culture at 37° C. in PETC medium (Tab. 1) with 30 psi steel mill gas as substrate (approx 48% CO, 32% N2, 2% H2, and 18% CO2). Ethanol concentrations were confirmed by HPLC analysis using an Agilent 1100 Series HPLC system equipped with a RID operated at 35° C. (Refractive Index Detector) and an Alltech IOA-2000 Organic acid column (150×6.5 mm, particle size 5 μm) kept at 60° C. Slightly acidified water was used (0.005 M H2SO4) as mobile phase with a flow rate of 0.7 ml/min. To remove proteins and other cell residues, 400 μl samples were mixed with 100 μl of a 2% (w/v) 5-Sulfosalicylic acid and centrifuged at 14,000×g for 3 min to separate precipitated residues. 10 μl of the supernatant were then injected into the HPLC for analyses.
# [3] = test system: Clostridium thermocellum; conditions: cited from earlier work
compound,measurement,setting,value
"CCO [ethanol, Ethanol]",concentration over which growth rate is partially inhibited and productivity decreases,[1],20 to 40 g/L
same,concentration over which metabolism and growth rate are substantially slowed,[1],40 to 50 g/L
same,microbial biomass reached over a 24 hour period,"[2]; 20 g/L ethanol added, 30 psi steel mill gas, start approx 0.2 g/L biomass, no-added-ethanol culture reached approx 0.85 g/L",0.45 g/L
same,ethanol concentration at which growth was found to be inhibited,[2]; serum bottles,10-20 g/l
same,ethanol concentration in which the micro-organism can still thrive,[3]; after strain selection,up to 8%
same,ethanol concentration inhibitory to growth,[3]; unselected strain,above 1%
